The values below come from PubChem BioAssay AID1549 (Sanford-Burnham Center for Chemical Genomics, 2009).

Each structure is given as a SMILES string. Active and inactive are the calls of the source. No rule for the calls is given here.

For the test, the target named is Influenza A virus M2 proton channel (A/TW/4845/1999 H1N1). Kind of test: NMR binding screen, influenza A virus M2 proton channel, Kd (AID 1549). The settings on record: M2 protein.
As for `CN(C)S(=O)(=O)c1cccc(N)c1`, the Kd (as a rule, the equilibrium constant for the complex coming apart) was > 4 mM (inactive).

As for `CC(=O)Nc1ccc(S(=O)(=O)Nc2cc(C)on2)cc1`, the Kd is > 4 mM (inactive).

In the case of `Cc1occc1C(=O)NCc1ccccn1`, the Kd is > 4 mM (inactive). On to `CC(C)(O)[C@@H]1Cc2cc3ccc(=O)oc3cc2O1`, for which the Kd was > 4 mM (inactive). The figure for `CCCNC(=O)CSc1nnc(C)s1` is > 4 mM (inactive); for `Cc1cc(Oc2ccccc2)nc(N)n1` it is > 4 mM (inactive). Take `COc1ccc(S(=O)(=O)N2CCC(C(N)=O)CC2)cc1`: the Kd was > 4 mM (inactive). The figure for `c1ccc(CSc2ncccn2)cc1` is > 4 mM (inactive). The figure for `Cn1nnc2cc(C(=O)NCc3ccco3)ccc21` is > 4 mM (inactive); for `O=C(O)C12CC3CC(CC(O)(C3)C1)C2` it is > 4 mM (inactive); for `NCc1n[nH]c(=O)c2ccccc12` it is > 4 mM (inactive). As for `O=c1[nH]c2ccc(S(=O)(=O)NC3CC3)cc2[nH]1`, the Kd was > 4 mM (inactive).

As for `Cc1cc(C)n(S(=O)(=O)c2ccc(C)c(C)c2C)n1`, the Kd was > 4 mM (inactive). The figure for `O=C(Nc1ccon1)c1cc2c(s1)CCCC2` is > 4 mM (inactive); for `O=C(CS(=O)(=O)c1ccccc1)Nc1nccs1` it is > 4 mM (inactive). Take `O=C(c1ccccc1)c1ccccc1C(=O)N1CCOCC1`: the Kd was > 4 mM (inactive).

With `COc1ccc(C2=CC(=O)C=CC2=O)cc1`, the Kd was > 4 mM (inactive). Turning to `CCCCn1c(=O)cc(O)c2ccccc21`, the Kd was > 4 mM (inactive). The figure for `CCN1CCC2(CC1)CC1CC3C=CC1(CN2C(C)=O)O3` (configuration not stated) is > 4 mM (inactive); for `CCc1nnc(NC(C)=O)s1` it is > 4 mM (inactive). The figure for `COc1ccc(C(=O)NCC(=O)O)cc1` is > 4 mM (inactive); for `O=C1CNC(=O)/C1=C/c1ccc(O)cc1` it is > 4 mM (inactive); for `COc1ccc(N2CC(=O)NC2=O)cc1` it is > 4 mM (inactive). Take `COc1ccc2c(c1OC)OC[C@@H](c1ccc(OC)c(OC)c1OC)C2`: the Kd is > 4 mM (inactive). The figure for `Nc1ccc2c(c1)CCC2=O` is > 4 mM (inactive); for `CC(=O)c1cccc(NC(=O)C=C(C)C)c1` it is > 4 mM (inactive); for `CN(C)S(=O)(=O)N1CCc2ccccc21` it is > 4 mM (inactive). The figure for `C[C@@H]1CC[C@@]2(NC1)O[C@H]1C[C@H]3C4CC=C5C[C@@H](O)CC[C@]5(C)C4CC[C@]3(C)C1[C@@H]2C` (some centres not stated) is > 4 mM (inactive). Take `Clc1ccc(-c2nnc3ccccn23)cc1`: the Kd is > 4 mM (inactive). The figure for `CCn1cnc2cc(NCc3ccncc3)ccc21` is > 4 mM (inactive); for `O=C(Nc1cccnc1)N1CCOCC1` it is > 4 mM (inactive).

With `OC12CC3CC(CC(C3)C1)C2`, the Kd was > 4 mM (inactive). The figure for `Cc1nn(CC(=O)Nc2ccccn2)c(=O)c2ccccc12` is > 4 mM (inactive); for `COC(=O)[C@@H]1C(O)CC[C@H]2CN3CCc4c([nH]c5ccccc45)[C@@H]3C[C@@H]21` (some centres not stated) it is > 4 mM (inactive); for `CC(=O)c1c(C)nc(C)nc1NC(=O)C(C)C` it is > 4 mM (inactive). In the case of `CCOC(=O)Cn1cnc2c1c(=O)[nH]c(=O)n2C`, the Kd is > 4 mM (inactive). The figure for `CC1(C)C2CC(=O)[C@]3(C)C(CC[C@@]4(C)[C@H](c5ccoc5)OC(=O)C5OC543)[C@@]2(C)[C@@H](O)C[C@H]1O` (some centres not stated) is > 4 mM (inactive).

Regarding `COc1ccc2c(c1)O[C@@H]1COc3cc(OC)c(OC)cc3[C@@H]1C2=O`, the Kd was > 4 mM (inactive). The figure for `CC1=C(C(=O)Nc2ccccc2)SCCO1` is > 4 mM (inactive); for `NS(=O)(=O)c1ccc2c(c1)OCCO2` it is > 4 mM (inactive); for `c1ccc(-c2csc(Nc3cccnc3)n2)nc1` it is > 4 mM (inactive). Turning to `CC(C)(C)Cc1nc(-c2ccccn2)no1`, the Kd is > 4 mM (inactive). The figure for `COc1ccc(-c2coc3cc(O)ccc3c2=O)c(O)c1O` is > 4 mM (inactive).

As to `CCOC(=O)Cn1cnc2sc3c(c2c1=O)CCC3`, the Kd is > 4 mM (inactive).

Consider `OCc1ccc(-n2cncn2)cc1`, for which the Kd was > 4 mM (inactive). The figure for `Oc1ccc(-n2ccnc2)cc1` is > 4 mM (inactive). `O=C(Nc1ccon1)c1ccc(Cl)s1`: the Kd is > 4 mM (inactive).

In the case of `CSc1nsc(SCc2cnc(C)nc2N)n1`, the Kd was > 4 mM (inactive).

As for `Cc1cc(NC(=O)CSc2ccnc(=O)[nH]2)no1`, the Kd is > 4 mM (inactive). For the compound `CC1=NN(c2ccc(N)cc2)C(=O)C1`, the Kd was > 4 mM (inactive).

With `CC(C)n1c(Nn2cnnc2)nc2ccccc21`, the Kd was > 4 mM (inactive). With `c1cnc(N2CCSCC2)nc1`, the Kd was > 4 mM (inactive). Take `CNCc1ccco1`: the Kd was > 4 mM (inactive). As for `Cc1ccc(-c2nn3c(C)nnc3s2)cc1N`, the Kd was > 4 mM (inactive). Regarding `Cc1sc2nc(NCCO)[nH]c(=O)c2c1C`, the Kd was > 4 mM (inactive). For the compound `CCOCC(=O)NCc1n[nH]c(=O)c2ccccc12`, the Kd is > 4 mM (inactive). Take `[O-][n+]1onc2c1CCc1c-2nn(-c2ccccc2)[n+]1[O-]`: the Kd is > 4 mM (inactive).
